We go through four molecules from paper PMC11369193, “Structural insights into human ABCD3-mediated peroxisomal acyl-CoA translocation” (Cell Discovery, 2024).

The Km is the concentration of substrate that gives half-maximal velocity. By EC50 is commonly meant the concentration at which the effect is half-maximal. What is called stoichiometry N is a count of units in the complex or per binding partner.

Data set [1] relates to T1, chABCD3.
T1 construct: gene ABCD3; C. elegans PMP2 residues 1-50 fused to human ABCD3 residues 51-659, N-terminal FLAG tag, HEK293F, homodimer; PMP2 segment invisible in structures; with Peroxisomal Membrane Protein related (Caenorhabditis elegans)
Kind of data set: ATPase activity, malachite green phosphate assay. Particulars: LMNG + CHS detergent; 20 mM Tris-HCl pH 7.5, 2 mM MgCl2, 37 °C; no acyl-CoA (basal). It is filed as biochemical, Homo sapiens.

The test system of data set [2] is T1, chABCD3. As to the kind of experiment: ATPase activity, malachite green phosphate assay; cryo-EM structure […] Å (GDN). It is filed as biochemical, Homo sapiens. Particulars: LMNG + CHS detergent; 20 mM Tris-HCl pH 7.5, 2 mM MgCl2, 37 °C; no acyl-CoA (basal); structure with 10 mM ATP/Mg2+.
The target of data set [3] is T1, chABCD3. As to the kind of experiment: stimulation of ATPase activity, malachite green phosphate assay; cryo-EM structure […] Å (digitonin). It is filed as biochemical, Homo sapiens. Particulars: 2 mM ATP; LMNG + CHS; 20 mM Tris-HCl pH 7.5, 2 mM MgCl2, 37 °C; activation of ATPase; two sites per dimer.
Data set [4] deals with chimeric ABCD3 (chABCD3): N-terminal 50 residues of C. elegans PMP2 fused to the core domains of human ABCD3, wild type (Caenorhabditis elegans | human) (UniProt P28288). As to the kind of experiment: cryo-EM structure; purified chABCD3 (~10 mg/mL) in digitonin with 0.5 mM phytanoyl-CoA; C2 symmetry; inward-facing conformation; 2.9 Å.
Substrate in data set [5]: Nc1ncnc2c1ncn2[C@@H]1O[C@H](COP(=O)(O)OP(=O)(O)OP(=O)(O)O)[C@@H](O)[C@H]1O
Kind of data set: ATPase activity, malachite green phosphate assay. It is filed as biochemical, Homo sapiens. The conditions noted are these: LMNG + CHS detergent, 20 mM Tris-HCl pH 7.5, 2 mM MgCl2, 37 °C, no acyl-CoA (basal).

Regarding `Nc1ncnc2c1ncn2[C@@H]1O[C@H](COP(=O)(O)OP(=O)(O)OP(=O)(O)O)[C@@H](O)[C@H]1O` [ATP], the results for the Km with chABCD3 [1] and in the data set on chABCD3 [2] were 160 µM and 190 µM, respectively.

Regarding `CC(C)CCCC(C)CCCC(C)CCCC(C)CC(=O)SCCNC(=O)CCNC(=O)[C@H](O)C(C)(C)COP(=O)(O)OP(=O)(O)OC[C@H]1O[C@@H](n2cnc3c(N)ncnc32)[C@H](O)[C@@H]1OP(=O)(O)O` (some centres unmarked) [phytanoyl-CoA], the EC50 on chABCD3 [3] is about 460 nM.

In the case of “chimeric ABCD3 (chABCD3): N-terminal 50 residues of C. elegans PMP2 fused to the core domains of human ABCD3, wild type (from UniProt P28288 51-659)”, the stoichiometry N in data set [4] is 2.

B1: hABCD3 (Homo sapiens) (protein)
chain: MAAFSKYLTARNSSLAGAAFLLLCLLHKRRRALGLHGKKSGKPPLQNNEKEGKKERAVVDKVFFSRLIQILKIMVPRTFCKETGYLVLIAVMLVSRTYCDVWMIQNGTLIESGIIGRSRKDFKRYLLNFIAAMPLISLVNNFLKYGLNELKLCFRVRLTKYLYEEYLQAFTYYKMGNLDNRIANPDQLLTQDVEKFCNSVVDLYSNLSKPFLDIVLYIFKLTSAIGAQGPASMMAYLVVSGLFLTRLRRPIGKMTITEQKYEGEYRYVNSRLITNSEEIAFYNGNKREKQTVHSVFRKLVEHLHNFILFRFSMGFIDSIIAKYLATVVGYLVVSRPFLDLSHPRHLKSTHSELLEDYYQSGRMLLRMSQALGRIVLAGREMTRLAGFTARITELMQVLKDLNHGKYERTMVSQQEKGIEGVQVIPLIPGAGEIIIADNIIKFDHVPLATPNGDVLIRDLNFEVRSGANVLICGPNGCGKSSLFRVLGELWPLFGGRLTKPERGKLFYVPQRPYMTLGTLRDQVIYPDGREDQKRKGISDLVLKEYLDNVQLGHILEREGGWDSVQDWMDVLSGGEKQRMAMARLFYHKPQFAILDECTSAVSVDVEGYIYSHCRKVGITLFTVSHRKSLWKHHEYYLHMDGRGNYEFKQITEDTVEFGS
notes: full-length (659 residues), codon-optimized, N-terminal FLAG tag, expressed in HEK293F; LMNG + CHS detergent
As to B1, the Km in data set [5] came out at 240 µM.
